Experimental data as given in patent US10087191B2, “Piperidine derivative and preparation method and pharmaceutical use thereof” (Jiangsu Hengrui Medicine Co., Ltd., priority 2015, dated 2018).

Assays:
[1] = biological target: estrogen receptor (ER) (Homo sapiens (Human), UniProt P03372); assay: Inhibition of the binding of estrogen (E) to estrogen receptor (ER), MCF-7/ERE-luciferase reporter cells; format: cell-based; conditions: MCF-7/ERE-luciferase cells, 0.1 nM estradiol, 24 hours; read-out: IC50 value of inhibition effect on the binding of E to ER
Method: The inhibition effect of the compounds on the binding of E to ER in vitro was tested by the following method.
The object of this experiment was to determine the inhibition effect of the compounds on the binding of E to ER, and the in vitro activity of the compounds was evaluated according to the IC50 value.
MCF-7/ERE-luciferase cells were inoculated into the MEM medium (hyclone, SH30024.01B) containing 10% charcoal stripped FBS (Moregate, FBSF), 1% sodium pyruvate (Sigma, Cat. No. S8636), 1% nonessential amino acids (Sigma, Cat. No. M7145) and 500 μg/ml G418 in a 96-well plate with a density of 30,000 cells/well, and the cells were incubated under the conditions of 37° C. and 5% CO2. […] After incubation for 24 hours, the medium was removed, then 0.1 nM estradiol (Sigma, Cat. No. E2758) and 10 μl of the drug diluted with the medium were added to each well, and the control group was added with DMSO. The plate was gently shaken and incubated in a incubator at 37° C., 5% CO2. After 24 hours, the cell culture medium was discarded.
The inhibition effect of the compounds of the present invention on the binding of E to ER was tested by the experiment described above.

[2] = test system: MCF7 cells; assay: Inhibition of the proliferation of MCF7 cells (Cell Titer-Glo); format: cell-based; conditions: Homo sapiens, MCF-7 cells, 72 hours, read-out: IC50 value of inhibition effect on the proliferation of MCF7 cells
Method: The object of this experiment was to determine the inhibition effect of the compounds on the proliferation activity of MCF7 cells, and the in vitro activity of the compounds was evaluated according to the IC50 value.
After incubation for 24 hours, the medium was removed, then 90 μl of the medium containing 2% FBS and 10 μl of the drug were added to each well, 10 μl of DMSO were added to the control group, and the blank group contained only 100 μl medium containing 2% FBS. The plate was gently shaken and incubated in a incubator at 37° C., 5% CO2. After 72 hours, 50 μl of mixed Cell Titer-Glo (Promega, Cat. No. G7571) were added to each well. The plate was shaken until the ingredients were well mixed, and placed at room temperature for 10 minutes, then the chemiluminescence signal value was determined.
The values of the chemiluminescence signals vs the logarithmic concentrations of the compounds were plotted using Graghpad Prism to obtain IC50 values.

Sequence of estrogen receptor (ER) (P03372 whole entry): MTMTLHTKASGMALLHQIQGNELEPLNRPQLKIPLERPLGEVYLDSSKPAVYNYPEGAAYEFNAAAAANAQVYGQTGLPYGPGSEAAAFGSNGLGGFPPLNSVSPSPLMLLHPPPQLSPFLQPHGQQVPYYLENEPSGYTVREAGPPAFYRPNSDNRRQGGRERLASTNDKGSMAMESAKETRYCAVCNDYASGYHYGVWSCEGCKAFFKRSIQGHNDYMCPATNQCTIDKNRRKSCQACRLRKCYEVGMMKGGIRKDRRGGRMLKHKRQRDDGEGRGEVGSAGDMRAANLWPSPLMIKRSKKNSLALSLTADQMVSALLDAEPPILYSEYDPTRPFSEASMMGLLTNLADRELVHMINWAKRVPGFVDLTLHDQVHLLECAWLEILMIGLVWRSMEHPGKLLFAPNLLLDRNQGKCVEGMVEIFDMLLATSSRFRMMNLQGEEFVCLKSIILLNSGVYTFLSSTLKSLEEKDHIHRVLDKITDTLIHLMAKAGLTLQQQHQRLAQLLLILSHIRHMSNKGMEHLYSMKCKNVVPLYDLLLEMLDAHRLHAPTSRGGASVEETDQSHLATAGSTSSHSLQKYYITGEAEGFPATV

Structure (SMILES) | IC50 [1] | IC50 [2]
CC1Cc2cc(C#N)ccc2C(c2c(F)cc(/C=C/C(=O)O)cc2F)N1CC(C)(C)F [Example 93, (E)-3-(4-((1S,3R/1R,3S)-6-cyano-2-(2-fluoro-2-methylpropyl)-3-methyl-1,2,3,4-tetrahydroisoquinolin-1-yl)-3,5-difluorophenyl)acrylic acid] | 12.9 nM | –
C[C@H]1Cc2cc3c(cc2[C@H](c2c(F)cc(/C=C/C(=O)O)cc2F)N1CC(C)(C)F)OCO3 [Example 72, (E)-3-(3,5-difluoro-4-((5R,7S)-6-(2-fluoro-2-methylpropyl)-7-methyl-5,6,7,8-tetrahydro-[1,3]dioxolo[4,5-g]isoquinolin-5-yl)phenyl)acrylic acid] | 40.9 nM | –
CC1Cc2cc(NC(=O)OC(C)(C)C)ccc2C(c2c(F)cc(/C=C/C(=O)O)cc2F)N1CC(C)(C)F [Example 31, (E)-3-(4-((1S,3R/1R,3S)-6-((tert-butoxycarbonyl)amino)-2-(2-fluoro-2-methylpropyl)-3-methyl-1,2,3,4-tetrahydroisoquinolin-1-yl)-3,5-difluorophenyl)acrylic acid] | 84.1 nM | –
CC1Cc2cc(O[C@H]3CCOC3)ccc2C(c2c(F)cc(/C=C/C(=O)O)cc2F)N1CC(C)(C)F (stereo partly drawn) [Example 37, (E)-3-(3,5-difluoro-4-((1S,3R/1R,3S)-2-(2-fluoro-2-methylpropyl)-3-methyl-6-(((S)-tetrahydrofuran-3-yl)oxy)-1,2,3,4-tetrahydroisoquinolin-1-yl)phenyl)acrylic acid] | 13.7 nM | 4.79 nM
CC1Cc2cc(N3CCN(C)C(=O)C3)ccc2C(c2c(F)cc(/C=C/C(=O)O)cc2F)N1CC(C)(C)F [Example 39, (E)-3-(3,5-difluoro-4-((1S,3R/1R,3S)-2-(2-fluoro-2-methylpropyl)-3-methyl-6-(4-methyl-3-oxopiperazin-1-yl)-1,2,3,4-tetrahydroisoquinolin-1-yl)phenyl)acrylic acid] | 14.2 nM | 2.34 nM
CC1Cc2c(ccc3[nH]ncc23)C(c2c(F)cc(/C=C/C(=O)O)cc2F)N1C1CCCC1 [Example 103, (E)-3-(4-((6S,8R/6R,8S)-7-cyclopentyl-8-methyl-6,7,8,9-tetrahydro-3H-pyrazolo[4,3-f]isoquinolin-6-yl)-3,5-difluorophenyl)acrylic acid] | 1.32 nM | 2.95 nM
C[C@H]1Cc2c(ccc3[nH]ncc23)[C@H](c2c(F)cc(/C=C/C(=O)O)cc2F)N1CC(C)(C)F [Example 95, (E)-3-(3,5-difluoro-4-((6R,8S)-7-(2-fluoro-2-methylpropyl)-8-methyl-6,7,8,9-tetrahydro-3H-pyrazolo[4,3-f]isoquinolin-6-yl)phenyl)acrylic acid] | 29.8 nM | –
CC1Cc2cc(OCC#N)ccc2C(c2c(F)cc(/C=C/C(=O)O)cc2F)N1CC(C)(C)F [Example 33, (E)-3-(4-((1S,3R/1R,3S)-6-(cyanomethoxy)-2-(2-fluoro-2-methylpropyl)-3-methyl-1,2,3,4-tetrahydroisoquinolin-1-yl)-3,5-difluorophenyl)acrylic acid] | 37.7 nM | 7.78 nM
CC1Cc2cc(-c3cnn(C(C)C)c3)ccc2C(c2c(F)cc(/C=C/C(=O)O)cc2F)N1CC(C)(C)F [Example 50, (E)-3-(3,5-difluoro-4-((1S,3R/1R,3S)-2-(2-fluoro-2-methylpropyl)-6-(1-isopropyl-1H-pyrazol-4-yl)-3-methyl-1,2,3,4-tetrahydroisoquinolin-1-yl)phenyl)acrylic acid] | 9.7 nM | 4.86 nM
C[C@@H]1Cc2cc(-c3ccc4cnccc4c3)ccc2[C@@H](c2c(F)cc(/C=C/C(=O)O)cc2F)N1CC(C)(C)F [Example 98, (E)-3-(3,5-difluoro-4-((1S,3R)-2-(2-fluoro-2-methylpropyl)-3-methyl-1,2,3,4-tetrahydro-[6,6′-biisoquinolin]-1-yl)phenyl)acrylic acid] | 0.85 nM | 1.83 nM
CC1Cc2cc(-c3ncco3)ccc2C(c2c(F)cc(/C=C/C(=O)O)cc2F)N1CC(C)(C)F [Example 54, (E)-3-(3,5-difluoro-4-((1S,3R/1R,3S)-2-(2-fluoro-2-methylpropyl)-3-methyl-6-(oxazol-2-yl)-1,2,3,4-tetrahydroisoquinolin-1-yl)phenyl)acrylic acid] | 9.41 nM | 3.67 nM
CC1CN(c2ccc3c(c2)CC(C)N(CC(C)(C)F)C3c2c(F)cc(/C=C/C(=O)O)cc2F)CCO1 [Example 38, (E)-3-(3,5-difluoro-4-((1S,3R/1R,3S)-2-(2-fluoro-2-methylpropyl)-3-methyl-6-(2-methylmorpholino)-1,2,3,4-tetrahydroisoquinolin-1-yl)phenyl)acrylic acid] | 4.42 nM | 1.34 nM
CC1Cc2cc(OC3CCOCC3)ccc2C(c2c(F)cc(/C=C/C(=O)O)cc2F)N1CC(C)(C)F [Example 36, (E)-3-(3,5-difluoro-4-((1S,3R/1R,3S)-2-(2-fluoro-2-methylpropyl)-3-methyl-6-((tetrahydro-2H-pyran-4-yl)oxy)-1,2,3,4-tetrahydroisoquinolin-1-yl)phenyl)acrylic acid] | 24.9 nM | –
CC(C)CN1C(C)Cc2c(ccc3[nH]ncc23)C1c1ccc(/C=C/C(=O)O)cc1 [Example 102, (E)-3-(4-((6R,8R/6S,8S)-7-isobutyl-8-methyl-6,7,8,9-tetrahydro-3H-pyrazolo[4,3-f]isoquinolin-6-yl)phenyl)acrylic acid] | 0.64 nM | 4.99 nM
CC1Cc2cc(N3Cc4ccncc4C3)ccc2C(c2c(F)cc(/C=C/C(=O)O)cc2F)N1CC(C)(C)F [Example 42, (E)-3-(3,5-difluoro-4-((1S,3R/1R,3S)-2-(2-fluoro-2-methylpropyl)-3-methyl-6-(1H-pyrrolo[3,4-c]pyridin-2(3H)-yl)-1,2,3,4-tetrahydroisoquinolin-1-yl)phenyl)acrylic acid] | 8.1 nM | 5 nM
CC1Cc2cc(C3CC3)ccc2C(c2c(F)cc(/C=C/C(=O)O)cc2F)N1CC(C)(C)F [Example 34, (E)-3-(4-((1S,3R/1R,3S)-6-cyclopropyl-2-(2-fluoro-2-methylpropyl)-3-methyl-1,2,3,4-tetrahydroisoquinolin-1-yl)-3,5-difluorophenyl)acrylic acid] | 18.4 nM | –
CC(C)Cn1cc(-c2ccc3c(c2)CC(C)N(CC(C)(C)F)C3c2c(F)cc(/C=C/C(=O)O)cc2F)cn1 [Example 52, (E)-3-(3,5-difluoro-4-((1S,3R/1R,3S)-2-(2-fluoro-2-methylpropyl)-6-(1-isobutyl-1H-pyrazol-4-yl)-3-methyl-1,2,3,4-tetrahydroisoquinolin-1-yl)phenyl)acrylic acid] | 26 nM | –
C[C@H]1Cc2cc(-c3ccc4cnccc4c3)ccc2[C@H](c2c(F)cc(/C=C/C(=O)O)cc2F)N1CC(C)(C)F [Example 99, (E)-3-(3,5-difluoro-4-((1R,3S)-2-(2-fluoro-2-methylpropyl)-3-methyl-1,2,3,4-tetrahydro-[6,6′-biisoquinolin]-1-yl)phenyl)acrylic acid] | 77.5 nM | –
CCn1cc(-c2ccc3oc4c(c3c2)C[C@H](C)N(CC(C)(C)F)[C@H]4c2c(F)cc(/C=C/C(=O)O)cc2F)cn1 [Example 96, (E)-3-(4-((1S,3S)-6-(1-ethyl-1H-pyrazol-4-yl)-2-(2-fluoro-2-methylpropyl)-3-methyl-1,2,3,4-tetrahydrobenzofuro[2,3-c]pyridin-1-yl)-3,5-difluorophenyl)acrylic acid] | 31.2 nM | –
